Assay results reported in paper PMC4844649, “A first-in-Asian phase 1 study to evaluate safety, pharmacokinetics and clinical activity of VS-6063, a focal adhesion kinase (FAK) inhibitor in Japanese patients with advanced solid tumors” (Cancer Chemotherapy and Pharmacology, 2016).
“And” between values parts separate entries of the source, which are not always exact repeats. Equal values may be shown once. “Also recorded” adds a separate entry of the source.

Experiment: phase 1 safety and tolerability (CTCAE v4.03) in Japanese patients with advanced solid tumors
Assay type: in vivo
Settings: for Grade 3 AE of unconjugated hyperbilirubinemia: 200 mg BID cohort; for dose-limiting toxicities (DLTs): 200–600 mg BID
Method: This was a phase 1, open-label, dose-escalation study to evaluate the safety and PK of VS-6063, a FAK inhibitor in Japanese subjects with advanced solid tumor malignancies. This study was expected to enroll up to 18 evaluable subjects with non-hematologic malignancies if 6 subjects were assigned at each of the 3 planned dose levels of 200, 400, and 600 mg BID. VS-6063 was administered orally, BID, in continuous 21 day cycles. Subject enrollment proceeded according to a standard 3 + 3 design. In the absence of DLT, each subject received oral VS-6063 (BID) for a minimum of 21 days of continuous daily dosing (1 cycle) and could continue to receive additional cycles of study treatment until disease progression was documented or other treatment discontinuation criteria were met. All patients within a cohort were required to complete 1 cycle (21 days) of dosing with <1 of 3 or <2 of 6 subjects experiencing a DLT prior to escalation to the next dose level in a new cohort. Three subjects were to be treated at each dose level until the first instance of DLT, after which up to 6 subjects were to be treated at that dose level. […] The MTD was defined as the highest dose level studied at which <1 subject out of 3 or <2 subjects out of 6 experienced a DLT. The RP2D was to be determined in discussion among the sponsor, medical monitor, and investigators. Observations related to PK and any VS-6063-related toxicities were included in the rationale supporting the RP2D. Safety and tolerability was assessed by the incidence and severity of AEs as determined by National Cancer Institute (NCI) Common Terminology Criteria for Adverse Events (CTCAE v4.03). The antitumor activity of study treatment was assessed according to the Response Evaluation Criteria in Solid Tumors (RECIST v1.1).

[1] = 200 mg BID, N = 3, listed as defactinib
[2] = 400 mg BID, N = 3, listed as defactinib
[3] = 600 mg BID, N = 3, listed as defactinib
[4] = Total, N = 9, listed as defactinib

## CNC(=O)c1ccc(Nc2ncc(C(F)(F)F)c(NCc3nccnc3N(C)S(C)(=O)=O)n2)cc1 [VS-6063, defactinib]
  Grade 3 AE of unconjugated hyperbilirubinemia: Only one subject
Listed as defactinib
  Grade 3 AE of unconjugated hyperbilirubinemia: Only one patient
200 mg BID, N = 3
  Anemia, treatment-related adverse event: 0 n (%)
  Aspartate aminotransferase increased, treatment-related adverse event: 1 (33.3) n (%)
  Blood alkaline phosphatase increased, treatment-related adverse event: 2 (66.7) n (%)
  Blood bilirubin increased, treatment-related adverse event: 3 (100.0) n (%)
  Decreased appetite, treatment-related adverse event: 2 (66.7) n (%)
  Diarrhea, treatment-related adverse event: 0 n (%)
  Fatigue, treatment-related adverse event: 2 n (%) and 2 (66.7) n (%)
  Headache, treatment-related adverse event: 0 n (%)
  Nausea, treatment-related adverse event: 1 (33.3) n (%)
[1]
  Blood bilirubin increased, treatment-related adverse event: 3 n (%)
  Nausea, treatment-related adverse event: 1 n (%)
400 mg BID, N = 3
  Anemia, treatment-related adverse event: 0 n (%)
  Aspartate aminotransferase increased, treatment-related adverse event: 0 n (%)
  Blood alkaline phosphatase increased, treatment-related adverse event: 0 n (%)
  Blood bilirubin increased, treatment-related adverse event: 2 (66.7) n (%)
  Decreased appetite, treatment-related adverse event: 1 (33.3) n (%)
  Diarrhea, treatment-related adverse event: 1 (33.3) n (%)
  Fatigue, treatment-related adverse event: 1 n (%) and 1 (33.3) n (%)
  Headache, treatment-related adverse event: 1 (33.3) n (%)
  Nausea, treatment-related adverse event: 0 n (%)
[2]
  Blood bilirubin increased, treatment-related adverse event: 2 n (%)
  Diarrhea, treatment-related adverse event: 1 n (%)
600 mg BID, N = 3
  Anemia, treatment-related adverse event: 2 (66.7) n (%)
  Aspartate aminotransferase increased, treatment-related adverse event: 1 (33.3) n (%)
  Blood alkaline phosphatase increased, treatment-related adverse event: 0 n (%)
  Blood bilirubin increased, treatment-related adverse event: 2 (66.7) n (%)
  Decreased appetite, treatment-related adverse event: 1 (33.3) n (%)
  Diarrhea, treatment-related adverse event: 2 (66.7) n (%)
  Fatigue, treatment-related adverse event: 3 n (%) and 3 (100.0) n (%)
  Headache, treatment-related adverse event: 1 (33.3) n (%)
  Nausea, treatment-related adverse event: 1 (33.3) n (%)
[3]
  Blood bilirubin increased, treatment-related adverse event: 2 n (%)
  Diarrhea, treatment-related adverse event: 2 n (%)
  Nausea, treatment-related adverse event: 1 n (%)
Japanese subjects
  recommended Phase 2 dose (RP2D): 400 mg BID
Total, N = 9
  Anemia, treatment-related adverse event: 2 (22.2) n (%)
  Aspartate aminotransferase increased, treatment-related adverse event: 2 (22.2) n (%)
  Blood alkaline phosphatase increased, treatment-related adverse event: 2 (22.2) n (%)
  Blood bilirubin increased, treatment-related adverse event: 7 (77.8) n (%)
  Decreased appetite, treatment-related adverse event: 4 (44.4) n (%)
  Diarrhea, treatment-related adverse event: 3 (33.3) n (%)
  Fatigue, treatment-related adverse event: 6 (66.7) n (%)
  Headache, treatment-related adverse event: 2 (22.2) n (%)
  Nausea, treatment-related adverse event: 2 (22.2) n (%)
[4]
  Blood bilirubin increased, treatment-related adverse event: 7 n (%)
  Decreased appetite, treatment-related adverse event: 4 n (%)
  Diarrhea, treatment-related adverse event: 3 n (%)
  Fatigue, treatment-related adverse event: 6 n (%)
  Nausea, treatment-related adverse event: 2 n (%)
All dose cohorts
  AEs leading to death, SAEs, AEs leading to early study withdrawal: no AEs leading to death or SAEs, and no AEs leading to early study withdrawal
  concurrent increases in ALT or AST above ULN in subjects with hyperbilirubinemia: no increase in ALT or AST values associated with the increases in bilirubin
  proteinuria: no subject developed any grade of proteinuria
All dose cohorts, listed as defactinib
  concurrent increases in ALT or AST above ULN in subjects with hyperbilirubinemia: None of these subjects had concurrent increases in ALT or AST above ULN
All dose levels investigated
  tolerability: well tolerated at all dose levels investigated; also recorded: acceptable safety profile
Any dose cohort
  ECG parameters and QTc interval: No clinically meaningful changes in any ECG parameter were observed for any dose cohort and no subject had a QTc interval ≥500 ms or QTc increase from baseline >30 ms
  dose-limiting toxicities (DLTs): No dose-limiting toxicities were observed at any dose level
Any dose cohort, listed as defactinib
  dose-limiting toxicities (DLTs): No DLTs were reported in any dose cohort
Of the 9 subjects
  subjects requiring dose modification for increased bilirubin: 1 subjects
One patient, 200 mg cohort, following interruption of study drug
  time to resolution of Grade 3 hyperbilirubinemia after onset: 6 days
Typical onset, asymptomatic
  onset of hyperbilirubinemia after initiating treatment: ≤ 2 weeks
